{"source": "patent US6350369B1", "about": "“Method and system for determining analyte activity” (California Institute of Technology, priority 1998, dated 2002)", "origin": "cited, not measured here", "system": "cytochrome P-450", "conditions": "cytochrome P-450 aniline p-hydroxylation inhibition, in words", "data": [{"smiles": "OCc1ccccc1", "note": "[benzyl alcohol]", "values": [{"measurement": "inhibitory activity compared with QSAR prediction", "value": "higher activity than is predicted"}]}]}
